Experimental data taken from patent US20110144029A1, “Model Systems and Materials for the Study and Treatment of Neurodegenerative Diseases” (BOARD OF REGENTS, THE UNIVERSITY OF TEXAS SYSTEM, priority 2009, published 2011).

Key:
adult rat brains = assay: Stereotaxic injection of peptide into adult rat brain; assay type: in vivo
Description: Other aggregating peptides unrelated to tau are not neurotoxic. […] To examine this issue, we synthesized two peptides, STVIIE-R9 (designated at ST peptide), previously described by Pastor et al. (Pastor et al., 2008) and another de novo peptide, SQIVYA-R9. We were able to follow the kinetics of aggregation of both peptides into amyloid forming structures using the fluorescence of thioflavin-S and we characterized their morphology by TEM. […] Peptide induces neurodegeneration in the intact rat brain. […] To examine this issue, […] of T-peptide and K-peptide was sterotaxically injected into adult rat brains. Each animal received 2 injections—on one side into the striatum, and on the other side into the hippocampus. Rats were analyzed 1 week later. […] No damage is seen in the hippocampus however.

[1] = Live/Dead viability assay in HT-22 cell line; assay type: cell-based; conditions: 24 h, serum-free medium
Experimental: (§1) Primary cultures and cell lines were treated in serum-free medium with T-peptide for 24 hours. Viability was quantified using the Live/Dead assay. * indicates p<0.05 compared with control cells that were treated with serum-free medium without peptide: (6A) Results from the analyses of cerebellar granule neurons, cortical neurons, and kidney fibroblasts cultured from rats, (6B) Results from the HT22 and HEK293 cell lines;
(§2) HT-22 and HEK293 cell culture: HT-22 cells were maintained in DMEM supplemented with 10% FCS, 50 U/ml penicillin and 50 μg/ml streptomycin. HEK293 were maintained in DMEM supplemented with 10% FCS, 50 U/ml penicillin and 50 μg/ml streptomycin. Both cell lines were treated with peptide at 70-80% confluency in serum-free media.
(§3) Cell viability quantification: Cell viability was quantified using the Live/Dead assays with a commercially available kit (Invitrogen). This is a two-color fluorescence assay utilizing two cell-permeable compounds, calcein acetoxymethyl (calcein AM) and ethidium homodimer-1 (EthD-1). […] Cell viability was also analyzed using the MTT [3-(4,5-Dimethylthiazol-2-yl)-2,5-diphenyltetrazolium bromide] assay based on the evaluation of mitochondrial function. […] Absorbance was measured spectrophotometrically at 570 nm after an overnight incubation at room temperature.

[2] = tested on: cerebellar granule neurons; assay: MTT assay in cerebellar granule neurons; assay type: cell-based, rat; conditions: 24 h peptide treatment
Experimental: (§4) Cerebellar granule neurons were switched to serum-free medium containing various concentrations of T-peptide, K-peptide, Core-peptide, V-peptide, VV-peptide, and T (L)-peptide. Cell viability was measured using two independent methods 24 h after peptide treatment and results are graphed. * indicates p<0.05 compared with control cells that were treated with HK: (4A) Results from Red/Green viability assay, (4B) Results from MTT assay;
Culturing and treatment of neurons: Cerebellar granule neurons were cultured from 7-8 day old rats as previously described. The neurons were plated in 24-well with poly-L-lysine coated glass coverslips at a density of ˜1 million cells/well in Basal Eagle's Medium with Earle's salts (BME) supplemented with 10% FCS, 25 mM KCl, 2 mM glutamine and […] gentamicin. […]
as §3

kidney fibroblasts = assay: Live/Dead viability assay in primary kidney fibroblasts; assay type: cell-based, rat; conditions: 24 h, serum-free medium
Experimental: as §1
Cultures of kidney fibroblasts and treatment with peptides: Kidneys were taken for 7-8 day old rats and placed in Dulbecco's Modified Eagle's Medium (DMEM). They were then diced and trypsinized for 8-12 mins. Trypsin was inactivated with trypsin inhibitor and centrifuged at 500 g for 1 min. Pellets were resuspended in DMEM and broken-up with a pasteur pipette 25 times, then centrifuged at 1000 g rpm for 1 min. […]
as §3

[3] = tested on: cerebellar granule neurons; assay: Live/Dead (Red/Green) viability assay in cultured cerebellar granule neurons; assay type: cell-based, rat
Experimental: Neuronal cultures were switched to serum-free medium T-peptide, K-peptide, Core-peptide, V-peptide. VV-peptide, and T (L)-peptide. All peptides were used at 25 μM concentration. Phase contrast micrographs show appearance of the cultures after 24 h of peptide treatment. The Live/Dead viability assay was also performed. Nuclei of dead cells are stained red whereas cytoplasm of living cells are stained green. In the case of sick and dying cells, green staining is condensed;
as §4
Culturing and treatment of neurons: Cerebellar granule neurons were cultured from 7-8 day old rats as previously described. The neurons were plated in 24-well with poly-L-lysine coated glass coverslips at a density of ˜1 million cells/well in Basal Eagle's Medium with Earle's salts (BME) supplemented with 10% FCS, 25 mM KCl, 2 mM glutamine and […] gentamicin. To prevent mitosis of glial cells, cytosine arabinofuranoside ([…]) was added to culture 16-20 hrs after plating. Neuronal cultures were treated with peptides 6-7 days after plating. For treatment, the cultures were switched to serum-free medium containing 25 mM KCl (referred to as high potassium or HK medium). Although serum is required for proper maturation, after 5 days in culture, the neurons survive normally in the absence of serum provided depolarizing levels of KCl is added.
Cell viability quantification: Cell viability was quantified using the Live/Dead assays with a commercially available kit (Invitrogen). This is a two-color fluorescence assay utilizing two cell-permeable compounds, calcein acetoxymethyl (calcein AM) and ethidium homodimer-1 (EthD-1). Live cells have intracellular esterases that convert non-fluorescent calcein AM to the intensely green fluorescent calcein, which is retained within the cytoplasm of cells. Because dead cells have damaged membranes, EthD-1 enters and is fluorescent when bound to nucleic acids. EthD-1 stains the nuclei of damaged or dead cells. As recommended by the manufacturer, cells plated in wells with cover-slips were incubated in Live/Dead reagent (1 uM calcein AM and 4 uM EthD-1) for 30 min, and then mounted on slides. Cell viability was also analyzed using the MTT [3-(4,5-Dimethylthiazol-2-yl)-2,5-diphenyltetrazolium bromide] assay based on the evaluation of mitochondrial function. MTT assays were performed as previously described. Briefly, MTT (5 mg/ml in culture medium) was added to the culture medium and the cells incubated at 37° C. for 1 h. The assay was stopped by adding lysis buffer [20% sodium dodecyl sulfate (SDS) in 50% N,N-dimethylformamide, pH 4.7]. Absorbance was measured spectrophotometrically at 570 nm after an overnight incubation at room temperature.

[4] = tested on: human embryonic kidney HEK293T cell line; assay: Live/Dead viability assay in HEK293T cell line; assay type: cell-based; conditions: 24 h, serum-free medium
Experimental: as §1, §2, §3

cortical neurons = assay: Live/Dead viability assay in cortical neurons; assay type: cell-based; conditions: 24 h, serum-free medium
Experimental: as §1
as §3, with “(EthD-1). Live cells have intracellular esterases that convert non-fluorescent calcein AM to the intensely green fluorescent calcein, which is retained within the cytoplasm of cells. Because dead cells have damaged membranes, EthD-1 enters and is fluorescent when bound to nucleic acids. EthD-1 stains the nuclei of damaged or dead cells.” for “(EthD-1).”

Primary glial cells = assay: T-peptide toxicity in primary glial cells; assay type: cell-based; conditions: data not shown

SMILES: CC[C@@H](C)[C@@H](NC(=O)[C@@H](CCC(N)=O)NC(=O)[C@H](NC(C)=O)C(C)C)C(=O)N[C@@H](C(=O)N[C@H](Cc1ccc(O)cc1)C(=O)N[C@H](CCCCN)C(=O)N[C@@H](CCCNC(=N)N)C(=O)N[C@@H](CCCNC(=N)N)C(=O)N[C@@H](CCCNC(=N)N)C(=O)N[C@@H](CCCNC(=N)N)C(=O)N[C@@H](CCCNC(=N)N)C(=O)N[C@@H](CCCNC(=N)N)C(=O)N[C@@H](CCCNC(=N)N)C(=O)N[C@@H](CCCNC(=N)N)C(=O)N[C@@H](CCCNC(=N)N)C(N)=O)C(C)C [T-peptide, Ac-vqivyk-R9—NH2]
- brain damage compared with K-peptide-injected rats (adult rat brains; 200 mg injected into striatum and hippocampus, analyzed 1 week later): display more damage than K-peptide-injected rats
- damage in corpus callosum (adult rat brains; 200 mg injected, 1 week): shows damage and scarring
- damage in hippocampus (adult rat brains; 200 mg injected, 1 week): does not seem to show much damage
- damage in striatum (adult rat brains; 200 mg injected, 1 week): shows obvious damage
- lateral ventricle (adult rat brains; 200 mg injected, 1 week): enlarged
- sensitivity to T-peptide toxicity [1]: moderate level of sensitivity
- MTT assay result (mitochondrial function, words) [2]: confirmed using the MTT assay
- sensitivity to T-peptide toxicity relative to neuronal cell types (kidney fibroblasts): much less sensitive
- doses at which significant death is observable ([3]; 24 h, serum-free HK medium): ≥ 5 µM
- neurotoxicity / effect on neuronal survival ([3]; 24 h peptide treatment, HK medium): induces cell death in a concentration-dependent manner
- doses up to which the cell line is resistant [4]: up to 50 μM
- sensitivity to T-peptide induced toxicity relative to cerebellar granule neurons (cortical neurons): slightly less sensitive
- sensitivity to T-peptide toxicity relative to neurons (Primary glial cells): less sensitive than neurons
